Assay results taken from patent publication US12116358B2, “Substituted indoles and methods of use thereof” (EPIZYME, INC., priority 2018, dated 2024).
Like-named read-outs stand apart in the source and are kept apart here.

Columns and labels:
H3K36me3 in A549 cells = assay: In-Cell Western (ICW) assay of SETD2 inhibitors (A549 assay); type: cell-based, human; conditions: A549 cells, read-out: SETD2 A549
Procedure: In-Cell Western (ICW) Assay of SETD2 Inhibitors (A549 Assay)
Representative Compounds of the Disclosure were tested in the A549 assay according the following protocol.
1. Reagents and Consumables:
Prepare plates with compounds. Seed A549 cells to the plates with compounds, 4,000 cells/well, 50 μl/well. Put the plates at room temperature on a non-vibrating surface for 20 minutes before placing in the incubator. Incubate the plate at 37° C. incubator with CO2 for 3 days. Remove plate from incubator and bring to room temperature. Blot media out of the plate and add 50 μL of ice cold 100% methanol. Incubate 30 minutes at room temperature. Remove methanol by aspiration. Wash 3× with PBST. Add 50 μL of Blocking Buffer+0.1% Tween 20. Incubate 1 hour. Remove Blocking Buffer, wash 3× with PBST. Add 20 μL of H3K36me3 (1:1000 dilution). […] Incubate overnight at 4° C. Wash plate 5× with PBS-T. Add 20 μL of DRAQ5 (1:1000) and IRDye 800CW Goat anti-Rabbit IgG (1:500). Incubate for 1 hour in the dark. Wash plate 5× with PBS-T. Wash plate 3× with water. Dry by blotting on paper towel, then centrifuge plate upside down on a thin layer of paper towels for 1 minute at 1000 rpm to remove excess reagent. Leave plate uncovered for ˜10 minutes out of direct light before reading. Read on Licor instrument.
4. Licor Instrument Settings:
Preset: Plate; Resolution: 84 μm; Quality: low; Focus offset: 4.0; 700 channel intensity: 2; and 800 channel intensity: 3.

SETD2(1434-1711) = target: T1, SETD2(1434-1711) (Homo sapiens, UniProt Q9BYW2); assay: SETD2 (1434-1711) assay; type: biochemical; conditions: read-out: SETD2 (1434-1711)
T1 construct: SETD2 (1434-1711) Assay; catalogue N/A
T1 sequence (Q9BYW2 1434-1711): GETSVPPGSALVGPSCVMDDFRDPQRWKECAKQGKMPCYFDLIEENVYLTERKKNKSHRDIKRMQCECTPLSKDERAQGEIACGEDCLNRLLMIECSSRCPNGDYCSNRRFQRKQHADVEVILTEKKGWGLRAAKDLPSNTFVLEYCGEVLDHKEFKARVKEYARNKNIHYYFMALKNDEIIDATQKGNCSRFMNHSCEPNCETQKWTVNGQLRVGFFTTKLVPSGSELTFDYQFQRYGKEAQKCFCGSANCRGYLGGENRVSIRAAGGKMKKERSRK

IC50 (H3K36me3 in A549 cells) [µM] | IC50 (SETD2(1434-1711)) [µM] | IC50 (H3K36me3 in A549 cells; Homo sapiens) [µM] | Structure (SMILES)
> 2 | 3.9 | – | CC(=O)N1CC2CN(C3CCCC(NC(=O)c4cc5c(F)ccc(C)c5[nH]4)C3)CC2C1 (stereo not shown) [compound 1178]
0.1 | 0.05 | – | Cc1ccc(F)c2cc(C(=O)NC3CCCC(N4CCN5C(=O)COCC5C4)C3)[nH]c12 (stereo not shown) [compound 1140]
0.2 | 0.04 | – | Cc1ccc(F)c2cc(C(=O)NC3CCCC(N4CCN5C(=O)CN(C)C(=O)C5C4)C3)[nH]c12 (stereo not shown) [compound 1104]
– | 0.5 | > 2 | Cc1ccc(F)c2cc(C(=O)N[C@@H]3CCC[C@@H](N4CCC5(CCC(=O)N5)CC4)C3)[nH]c12 [compound 939]
– | 0.01 | 0.5 | CN[C@H]1CCN([C@H]2CCC[C@@H](NC(=O)c3cc4c(F)ccc(C)c4[nH]3)C2)C1 [compound 1087]
> 2 | 1 | – | Cc1ccc(F)c2cc(C(=O)NC3CCCC(N4CCCN(S(C)(=O)=O)CC4)C3)[nH]c12 (stereo not shown) [compound 982]
> 25 | > 50 | – | Cc1cccnc1C(C)(C)NC(=O)c1cc2cccc(C)c2[nH]1 [compound 595]
> 2 | 4.8 | – | Cc1ccc(F)c2cc(C(=O)NC3CCCC(N4CCn5c(nn(C)c5=O)C4)C3)[nH]c12 (stereo not shown) [compound 1142]
– | 0.01 | 0.01 | CC(=O)N1CCN([C@H]2CCC[C@@H](NC(=O)c3cc4c(F)ccc(C)c4[nH]3)C2)C[C@H]1C(F)(F)F [compound 1070]
> 2 | 0.7 | – | CCNC(=O)N1CCN(C2CCCC(NC(=O)c3cc4c(F)ccc(C)c4[nH]3)C2)CC1 (stereo not shown) [compound 949]
0.8 | 0.2 | – | COCCN(C(C)=O)C1CCN(C2CCCC(NC(=O)c3cc4c(F)ccc(C)c4[nH]3)C2)C1 (stereo not shown) [compound 843]
0.005 | 0.009 | – | CCC1CN(C2CCCC(NC(=O)c3cc4c(F)ccc(C)c4[nH]3)C2)CCN1C(C)=O (stereo not shown) [compound 1055]
> 2 | 0.4 | – | CC(=O)N1CCC12CN(C1CCCC(NC(=O)c3cc4c(F)ccc(C)c4[nH]3)C1)C2 (stereo not shown) [compound 950]
> 2 | 5 | – | Cc1ccc(F)c2cc(C(=O)NC3CCCC(N4CCC(N(C)C(=O)C(C)C)C4)C3)[nH]c12 (stereo not shown) [compound 970]
0.5 | 0.1 | – | Cc1ccc(F)c2cc(C(=O)N[C@@H]3CCC[C@H](N4CCN(CC(F)(F)F)CC4)C3)[nH]c12 [compound 826]
– | 0.2 | 0.7 | Cc1ccc(F)c2cc(C(=O)N[C@@H]3CCC[C@H](c4noc(CN(C)C)n4)C3)[nH]c12 [compound 1014]
0.5 | 0.06 | – | CC(=O)N1CCCN(C2CCCC(NC(=O)c3cc4c(F)ccc(C)c4[nH]3)C2)CC1 (stereo not shown) [compound 979]
0.1 | 0.02 | – | Cc1ccc(F)c2cc(C(=O)NC3CCCC(N4CCC(N(C)C(=O)CO)C4)C3)[nH]c12 (stereo not shown) [compound 983]
– | 9.1 | > 2 | Cc1nc([C@@H]2CCC[C@H](NC(=O)c3cc4c(F)ccc(C)c4[nH]3)C2)no1 [compound 1065]
1.9 | 0.5 | – | Cc1ccc(F)c2cc(C(=O)N[C@@H]3CCCC(N4CCN(CC(=O)N(C)C)CC4)C3)[nH]c12 (stereo partly shown) [compound 859]
– | 0.1 | > 2 | Cc1ccc(F)c2cc(C(=O)N[C@@H]3CCCC(N4CCC5(CC4)CNC(=O)N5)C3)[nH]c12 (stereo partly shown) [compound 890]
> 2 | 4 | – | CCN(C(=O)CO)C1CCN(C2CCCC(NC(=O)c3cc4c(F)ccc(C)c4[nH]3)C2)C1 (stereo not shown) [compound 1130]

The remaining lines, values behind:

Structure (SMILES) | IC50 (H3K36me3 in A549 cells) [µM] | IC50 (SETD2(1434-1711)) [µM] | IC50 (H3K36me3 in A549 cells; Homo sapiens) [µM]
Cc1ccc(F)c2cc(C(=O)Nc3cccc(C4CCN(C(=O)CN(C)C)C4)c3)[nH]c12 (stereo not shown) [compound 226] | 0.5 | 0.06 | –
Cc1ccc(F)c2cc(C(=O)Nc3cccc(N4CC[C@@H](N(C)C)C[C@@H]4C)c3)[nH]c12 [compound 303] | – | 0.06 | 1.2
Cc1ccc(F)c2cc(C(=O)Nc3cc(F)cc(N4CCOC(CCO)C4)c3)[nH]c12 (stereo not shown) [compound 24] | 0.06 | 0.02 | –
Cc1ccc(F)c2cc(C(=O)Nc3cccc(C4COC4)c3)[nH]c12 [compound 224] | 0.5 | 0.2 | –
COCC(=O)N1CCN(c2cc(F)cc(NC(=O)c3cc4c(F)ccc(C)c4[nH]3)c2)CC1 [compound 12] | 0.05 | 0.01 | –
Cc1ccc(F)c2cc(C(=O)Nc3cccc(N4CCC(O)(CN(C)C)CC4)c3)[nH]c12 [compound 254] | – | 0.06 | 0.6
Cc1ccc(F)c2cc(C(=O)Nc3cccc(N4CCN(C)CC4C)c3)[nH]c12 (stereo not shown) [compound 318] | – | 0.2 | 1.4
Cc1cccnc1C(CCC(=O)N1CCC(O)CC1)NC(=O)c1cc2cccc(C)c2[nH]1 (stereo not shown) [compound 434] | 4.6 | 4.3 | –
Cc1ccc(F)c2cc(C(=O)NC(C(=O)N(C)C)c3ccccn3)[nH]c12 (stereo not shown) [compound 491] | 12.2 | 12.1 | –
Cc1ccc(F)c2cc(C(=O)Nc3cc(F)cc(N4CCCN(C)C(=O)C4)c3)[nH]c12 [compound 183] | – | 0.09 | 0.4
Cc1cccnc1C(Cc1cnn(C)c1)NC(=O)c1cc2c(F)ccc(C)c2[nH]1 (stereo not shown) [Cpd. No. 85, 4-fluoro-7-methyl-N-(2-(1-methyl-1H-pyrazol-4-yl)-1-(3-methylpyridin-2-yl)ethyl)-1H-indole-2-carboxamide] | – | 0.04 | 0.2
CCC1CN(c2cccc(NC(=O)c3cc4c(F)ccc(C)c4[nH]3)c2)CCN1C(C)=O (stereo not shown) [compound 71] | 0.2 | 0.04 | –
Cc1ccc(F)c2cc(C(=O)Nc3cc(Cl)cc([C@H]4CC[C@@H](N(C)C)CC4)c3)[nH]c12 [compound 106] | 0.2 | 0.003 | –
Cc1ccc(F)c2cc(C(=O)Nc3cccc(N4CCN(CC5CC5)CC4)c3)[nH]c12 [compound 199] | 0.4 | 0.05 | –
Cc1ccc(F)c2cc(C(=O)Nc3cccc(N4CCC(NCCN)CC4)c3)[nH]c12 [compound 413] | 3.1 | 0.03 | –
Cc1ccc(F)c2cc(C(=O)Nc3cc(F)cc(N4CCC(N(C)C)C4)c3)[nH]c12 (stereo not shown) [compound 53] | 0.1 | 0.005 | –

Structure (SMILES) | IC50 (H3K36me3 in A549 cells) [µM] | IC50 (SETD2(1434-1711)) [µM] | IC50 (H3K36me3 in A549 cells; Homo sapiens) [µM]
Cc1ccc(F)c2cc(C(=O)Nc3cccc(N(C)C4CCN(C)C4)c3)[nH]c12 (stereo not shown) [compound 342] | – | 0.1 | 1.8
Cc1ccc(F)c2cc(C(=O)Nc3cccc(N4CC(F)C(N(C)C)C4)c3)[nH]c12 (stereo not shown) [compound 63] | 0.1 | 0.02 | –
Cc1ccc(F)c2cc(C(=O)Nc3cccc(N4CCOCC4=O)c3)[nH]c12 [compound 209] | – | 0.2 | 0.4
Cc1ccc(F)c2cc(C(=O)Nc3cccc(N4CCN(C(=O)C5CC5)CC4)c3)[nH]c12 [compound 93] | 0.2 | 0.06 | –
Cc1ccc(F)c2cc(C(=O)Nc3cccc(N4CCCC(N(C)C)C4)c3)[nH]c12 (stereo not shown) [compound 335] | – | 0.08 | 1.6
Cc1ccc(F)c2cc(C(=O)Nc3cccc(N4CCC5C(CCN5C)C4)c3)[nH]c12 (stereo not shown) [compound 172] | 0.3 | 0.02 | –
Cc1ccc(F)c2cc(C(=O)Nc3cccc(C4CCOCC4)c3)[nH]c12 [compound 101] | 0.2 | 0.05 | –
Cc1cc(C(=O)N[C@H]2CC[C@H](N)CC2)cnc1C(NC(=O)c1cc2cccc(C)c2[nH]1)C1CC1 (stereo partly shown) [compound 496] | 13.4 | 0.4 | –
Cc1cccnc1C(CCC(=O)N1CCn2cncc2C1)NC(=O)c1cc2cccc(C)c2[nH]1 (stereo not shown) [compound 460] | – | 4.5 | 6.2
Cc1ccc(F)c2cc(C(=O)Nc3cccc(C4CCN5C(=O)CCC5C4)c3)[nH]c12 (stereo not shown) [compound 37] | 0.09 | 0.02 | –
Cc1cccnc1C(NC(=O)c1cc2cccc(C)c2[nH]1)C(C)(C)C (stereo not shown) [compound 568] | – | 13.9 | > 25
Cc1cccnc1C(CN1CCOCC1)NC(=O)c1cc2cccc(C)c2[nH]1 (stereo not shown) [compound 489] | – | 7.9 | 11.8
Cc1ccc(F)c2cc(C(=O)Nc3nnc(C4CCN(C)CC4)[nH]3)[nH]c12 [compound 559] | – | > 10 | > 25
Cc1ccc(F)c2cc(C(=O)Nc3cccc(N4CC[C@@H](N(C)C)[C@@H](F)C4)c3)[nH]c12 [compound 301] | – | 0.1 | 1.2
Cc1ccc(F)c2cc(C(=O)Nc3cccc(N4CCNC(=O)CC4)c3)[nH]c12 [compound 200] | 0.4 | 0.05 | –
